From patent publication US20080161219A1, “CLATHRATES OF AN ORGANOSILANE QUATERNARY AMMONIUM COMPOUND AND UREA AND METHODS OF USE” (priority 2007, published 2008) come the findings set out here.

Each structure is given as a SMILES string.

Data set [1] in a line: Solubility / stability against decomposition in chloroform. The class given is physicochemical. How it is done: The following experiments were conducted to determine if the clathrate compositions of this invention would be decomposed by chloroform (a strong solvent).
7.51 grams of urea were slurried in a beaker with 75.4 grams of chloroform by magnetic stirring for 10 minutes. The slurry was then filtered by gravity through filter paper. The filtrate was employed to rinse the beaker to remove all solids and the rinse added to the filter cake. The filtrate was then evaporated in a tared beaker and a residue of 0.01 grams obtained (which was within experimental error). From this experiment, it can be concluded that urea was insoluble in chloroform.
10.21 grams of Example 7, Table 1 organosilane quaternary clathrate was slurried as above in 75 grams of chloroform for 10 minutes and the slurry filtered as above and the filtrate evaporated to dryness. A waxy residue of 0.07 grams remained in the beaker.
It can be concluded that this residue was not the organosilane quaternary. The solids that were filtered were dried to constant weight. 10.24 grams were recovered. 10.21 grams of the clathrate had been added. The difference of +0.03 grams was within experimental error. It can be concluded that the clathrate was not soluble in chloroform and that the organosilane quaternary was not extracted from the clathrate by the chloroform.

Data set [2] can be described thus: Dissolving clathrate in deionized water (appearance of mixture). The conditions noted are these: 6.4 gms clathrate in 800 ml deionized water (pH=3), shaken; 0.2% quat, 0.6% urea. Format: physicochemical.
Experimental: Clean and shield compositions were prepared by dissolving 6.4 gms of each urea clathrate of Examples 4 and 7 from Table 1 in 800 ml of deionized water (pH=3) by shaking in a plastic bottle. The resulting solutions contained 0.2% organosilane quaternary compound and 0.6% urea.

As to `NC(N)=O` [urea], in data set [1], the “residue of evaporated chloroform filtrate” value is given as 0.01 grams and the solubility in chloroform result was “insoluble”.

`CCCCCCCCCCCCCCCCCC[N+](C)(C)CCC[Si](OC)(OC)OC.[Cl-]` [Example 7, 3-(trimethoxysilyl)propyldimethyloctadecyl ammonium chloride]: the appearance of solution result in data set [2] is “clear”.
